# Data published in patent US8461150B2, “Chalcone linked pyrrolo[2,1-c][1, 4]benzodiazepine hybrids as potential anticancer agents and process for the preparation thereof” (Council of Scientific & Industrial Research, priority 2008, dated 2013).
# Assays:
# [1] = system: duplex-form calf thymus DNA (CT-DNA); experiment: Thermal denaturation studies with calf thymus DNA; assay type: binding; conditions: [PBD]:[DNA] molar ratio 1:5, CT-DNA 100 μM, ligand 20 μM, pH 7.00; for ΔTμ (° C.) after incubation at 37 °C. for 0 h: 0 h incubation; for ΔTμ (° C.) after incubation at 37 °C. for 18 h: 18 h incubation
# Protocol: These compounds have also been subjected to thermal denaturation studies with duplex-form calf thymus DNA (CT-DNA) using an modification of a reported procedure. Working solutions in aqueous buffer (10 mM NaH2PO4/Na2HPO4, 1 mM Na2EDTA, pH 7.00+0.01) containing CT-DNA (100 μm in phosphate) and the PBD (20 μm) have been prepared by addition of concentrated PBD solutions in DMSO to obtain a fixed [PBD]/[DNA] molar ratio of 1:5. The DNA-PBD solutions have been incubated at 37° C. for 0 and 18 h prior to analysis. Samples have been monitored at 260 nm using a Beckman DU-800 spectrophotometer fitted with high performance temperature controller, and heated at 1° C. min^−1 in the 40-110° C. range. DNA helix→coil transition temperatures (Tm) have been obtained from the maxima in the d(A260)/d T derivative plots. Drug-induced alterations in DNA melting behavior are given by: ΔTm=Tm(DNA+PBD)−Tm(DNA alone), where the Tm value for the PBD-free CT-DNA is 68.5±0.01.
# [2] = system: SK-MEL-5 (Melanoma); experiment: Cytotoxicity in selected cancer cell lines (SRB, 48 h); assay type: cell-based, human
# Protocol: (§1) Biological Activity: The in vitro cell line studies were carried out at the National Cancer Institute, Maryland, USA.
# (§2) 6b, 6c, 6g, 10a and 10b were evaluated for in vitro anticancer activity against sixty human tumour cells derived from nine cancer types (leukemia, non-small-cell lung, colon, CNS, melanoma, ovarian, prostate, renal and breast cancer) as shown in (Table 1 and 2). For the compound, dose response curves for each cell line were measured at a minimum of five concentrations at 10 fold dilutions. A protocol of 48 h continuous drug exposure was used and a sulforhodamine B (SRB) protein assay was used to estimate cell viability or growth. The concentration causing 50% cell growth inhibition (GI50), total cell growth inhibition (TGI 0% growth) and 50% cell death (LC50, −50% growth) compared with the control was calculated.
# (§3) Each cancer type represents the average of six to nine different cancer cell lines. In vitro evaluation of cytotoxic activity. The compound 6b, 6c, 6g 10a and 10b were evaluated for in vitro anticancer activity against nine human tumour cells derived from six cancer types (leukemia, colon, prostate, melanoma, ovarian, lung, cervix and breast cancer) as shown in Table 3. […] Compounds 6b, 6c, 6g, 10a and 10b have been evaluated for their in vitro cytotoxicity in selected human cancer cell lines of colon (Colo205), lung (NCI-H522, NCI-H226), colon (colo-205), prostate (DU145, PC3), ovarian (IGROV1, HT1080), and breast (MDA-MB-435, Zr-75-1), melanoma (LOXMIVI, VACC-62, SK-MEL-5) origin. A protocol of 48 h continuous drug exposure has been used and an […] has been used to estimate cell viability or growth. The results are expressed as percent of cell growth determined relative to that of untreated control cells
# [3] = system: NCI-H226 (Non-small cell lung); experiment: as above; assay type: cell-based, human
# Protocol: as §1, §2, §3
# [4] = system: CAKI-1 (Renal); experiment: as above; assay type: cell-based, human
# Protocol: as §1, §2, §3
# [5] = system: HCT-116 (Colon); experiment: as above; assay type: cell-based, human
# Protocol: as §1, §2, §3
# [6] = system: A498 (Renal); experiment: as above; assay type: cell-based, human
# Protocol: as §1, §2, §3
# [7] = system: NCI-H522 (Non-small cell lung); experiment: as above; assay type: cell-based, human
# Protocol: as §1, §2, §3
# [8] = system: UO-31 (Renal); experiment: as above; assay type: cell-based, human
# Protocol: as §1, §2, §3
# [9] = system: TK-10 (Renal); experiment: as above; assay type: cell-based, human
# Protocol: as §1, §2, §3
# [10] = system: NCI/ADR-RES (Breast); experiment: as above; assay type: cell-based, human
# Protocol: as §1, §2, §3
# [11] = system: HCT-15 (Colon); experiment: as above; assay type: cell-based, human
# Protocol: as §1, §2, §3
# [12] = system: UACC-257 (Melanoma); experiment: as above; assay type: cell-based, human
# Protocol: as §1, §2, §3
# [13] = system: RPMI-8226 (Leukemia); experiment: as above; assay type: cell-based, human
# Protocol: as §1, §2, §3
# [14] = system: LOX IMVI (Melanoma); experiment: as above; assay type: cell-based, human
# Protocol: as §1, §2, §3
# [15] = system: CCRF-CEM (Leukemia); experiment: as above; assay type: cell-based, human
# Protocol: as §1, §2, §3
# [16] = system: OVCAR-3 (Ovarian); experiment: as above; assay type: cell-based, human
# Protocol: as §1, §2, §3
# [17] = system: NCI-H23 (Non-small cell lung); experiment: as above; assay type: cell-based, human
# Protocol: as §1, §2, §3
# [18] = system: 786-0 (Renal); experiment: as above; assay type: cell-based, human
# Protocol: as §1, §2, §3
# [19] = system: U251 (CNS); experiment: as above; assay type: cell-based, human
# Protocol: as §1, §2, §3
# [20] = system: SW-620 (Colon); experiment: as above; assay type: cell-based, human
# Protocol: as §1, §2, §3
# [21] = system: UACC-62 (Melanoma); experiment: as above; assay type: cell-based, human
# Protocol: as §1, §2, §3
# [22] = system: MDA-MB-231/ATCC (Breast); experiment: as above; assay type: cell-based, human
# Protocol: as §1, §2, §3
# [23] = system: MALME-3M (Melanoma); experiment: as above; assay type: cell-based, human
# Protocol: as §1, §2, §3
# [24] = system: SF-539 (CNS); experiment: as above; assay type: cell-based, human
# Protocol: as §1, §2, §3
# [25] = system: ACHN (Renal); experiment: as above; assay type: cell-based, human
# Protocol: as §1, §2, §3
# [26] = system: HL-60(TB) (Leukemia); experiment: as above; assay type: cell-based, human
# Protocol: as §1, §2, §3
# [27] = system: M14 (Melanoma); experiment: as above; assay type: cell-based, human
# Protocol: as §1, §2, §3
# [28] = system: CNS cancer cell lines; experiment: NCI in vitro anticancer screen, SRB assay, 48 h, panel average; assay type: cell-based, human; conditions: average of six to eight cell lines, 48 h exposure
# Protocol: as §1
# (§4) Cytotoxicity: • The compounds 6b) 7-Methoxy-8-{4-[1-(4-fluorophenyl)-3-(4-hydroxy-3-methoxyphenyl)-2-propen-1-one]butyl}-oxy-(11aS)-1,2,3,11a-5H-pyrrolo[2,1-c][1,4]benzodiazepin-5-one; • (6c) 7-Methoxy-8-{5-[1-(4-fluorophenyl)-3-(4-hydroxy-3-methoxyphenyl)-2-propen-1-one]pentyl}-oxy-(11aS)-1,2,3,11a-5H-pyrrolo[2,1-c][1,4]benzodiazepin-5-one; • (6g) 7-Methoxy-8-{3-[1-(2-hydroxyphenyl)-3-(4-hydroxy-3-methoxyphenyl)-2-propen-1-one]propyl}-oxy-(11aS)-1,2,3,11a-5H-pyrrolo[2,1-c][1,4]benzodiazepin-5-one; • (10a) 7-Methoxy-8-{3-[3-(4-hydroxy-3-methoxyphenyl)-1-(2,4-dimethyl-3-quinolyl)-2-propen-1-one]propyl}-oxy-(11aS)-1,2,3,11a-5H-pyrrolo[2,1-c][1,4]benzodiazepin-5-one • (10b) 7-Methoxy-8-{4-[3-(4-hydroxy-3-methoxyphenyl)-1-(2,4-dimethyl-3-quinolyl)-2-propen-1-one]butyl}-oxy-(11aS)-1,2,3,11a-5H-pyrrolo[2,1-c][1,4]benzodiazepin-5-one; were evaluated for in vitro anticancer activity against […] derived from […] (leukemia, ovarian, renal, melanoma, CNS, colon, prostate, lung, cervix and breast cancer) as shown in (Table 1, 2 and 3)
# as §2
# (§5) Each cancer type represents the average of six to eight different cancer cell lines.
# [29] = system: Non-small cell lung cancer cell lines; experiment: as above; assay type: cell-based, human; conditions: average of six to eight cell lines, 48 h exposure
# Protocol: as §1, §4, §2, §5
# [30] = system: Melanoma cancer cell lines; experiment: as above; assay type: cell-based, human; conditions: average of six to eight cell lines, 48 h exposure
# Protocol: as §1, §4, §2, §5
# [31] = system: Leukemia cancer cell lines; experiment: as above; assay type: cell-based, human; conditions: average of six to eight cell lines, 48 h exposure
# Protocol: as §1, §4, §2, §5
# [32] = system: Colon cancer cell lines; experiment: as above; assay type: cell-based, human; conditions: average of six to eight cell lines, 48 h exposure
# Protocol: as §1, §4, §2, §5
# [33] = system: Renal cancer cell lines; experiment: as above; assay type: cell-based, human; conditions: average of six to eight cell lines, 48 h exposure
# Protocol: as §1, §4, §2, §5
# [34] = system: Breast cancer cell lines; experiment: as above; assay type: cell-based, human; conditions: average of six to eight cell lines, 48 h exposure
# Protocol: as §1, §4, §2, §5
# [35] = system: Prostate cancer cell lines; experiment: as above; assay type: cell-based, human; conditions: average of six to eight cell lines, 48 h exposure
# Protocol: as §1, §4, §2, §5
# [36] = system: Ovarian cancer cell lines; experiment: as above; assay type: cell-based, human; conditions: average of six to eight cell lines, 48 h exposure
# Protocol: as §1, §4, §2, §5
# [37] = system: human tumour cell lines; experiment: In vitro cytotoxicity, mean graph midpoints (MG_MID) over human tumour cell lines; assay type: cell-based; conditions: human tumour cell lines, 48 h exposure, SRB
# Protocol: as §1, §2
compound,measurement,setting,value
"COc1cc(C=CC(=O)c2c(C)nc3ccccc3c2C)ccc1OCCCCCOc1cc2c(cc1OC)C(=O)N1CCC[C@H]1C=N2 [10c, 7-Methoxy-8-{5-[3-(4-hydroxy-3-methoxyphenyl)-1-(2,4-dimethyl-3-quinolyl)-2-propen-1-one]pentyl}-oxy-(11aS)-1,2,3,11a-5H-pyrrolo[2,1-c][1,4]benzodiazepin-5-one]",ΔTμ (° C.) after incubation at 37 °C. for 0 h,[1],4.7 °C
same,ΔTμ (° C.) after incubation at 37 °C. for 18 h,[1],5.1 °C
"COc1cc(C=CC(=O)c2c(C)nc3ccccc3c2C)ccc1OCCCCCCOc1cc2c(cc1OC)C(=O)N1CCC[C@H]1C=N2 [10d, 7-Methoxy-8-{6-[3-(4-hydroxy-3-methoxyphenyl)-1-(2,4-dimethyl-3-quinolyl)-2-propen-1-one]hexyl}-oxy-(11aS)-1,2,3,11a-5H-pyrrolo[2,1-c][1,4]benzodiazepin-5-one]",ΔTμ (° C.) after incubation at 37 °C. for 0 h,[1],4.9 °C
same,ΔTμ (° C.) after incubation at 37 °C. for 18 h,[1],5.3 °C
"COc1cc2c(cc1O)N=CC1CCCN1C2=O (stereo not drawn) [DC-81, reference compound]",ΔTμ (° C.) after incubation at 37 °C. for 0 h,[1],0.3 °C
same,ΔTμ (° C.) after incubation at 37 °C. for 18 h,[1],0.7 °C
"COc1cc(/C=C/C(=O)c2ccc(O)cc2)ccc1OCCCOc1cc2c(cc1OC)C(=O)N1CCC[C@H]1C=N2 [6g, 7-Methoxy-8-{3-[1-(4-hydroxyphenyl)-3-(4-hydroxy-3-methoxyphenyl)-2-propen-1-one]propyl}-oxy-(11aS)-1,2,3,11a-5H-pyrrolo[2,1-c][1,4]benzodiazepin-5-one]",GI50,[2],23.3 µM
same,GI50,[3],28.4 µM
same,GI50,[4],22.9 µM
same,GI50,[5],14.6 µM
same,GI50,[6],29 µM
same,GI50,[7],18.3 µM
same,GI50,[8],45.2 µM
same,GI50,[9],31.4 µM
same,GI50,[10],28.7 µM
same,GI50,[11],18.4 µM
same,GI50,[12],15.9 µM
same,GI50,[13],46.8 µM
same,GI50,[14],15 µM
same,GI50,[15],37.4 µM
same,GI50,[16],46.3 µM
same,GI50,[17],22.5 µM
same,GI50,[18],24.9 µM
same,GI50,[19],19.8 µM
same,GI50,[20],26.9 µM
same,GI50,[21],22.5 µM
same,GI50,[22],14.2 µM
same,GI50,[23],36.2 µM
same,GI50,[24],33.7 µM
same,GI50,[25],46.1 µM
same,GI50,[26],49.5 µM
same,GI50,[27],18.8 µM
same,Log GI50 (concentration in mol/L causing 50% growth inhibition),[28],−5.62 mol/L
same,Log GI50 (concentration in mol/L causing 50% growth inhibition),[29],−5.82 mol/L
same,Log GI50 (concentration in mol/L causing 50% growth inhibition),[30],−5.65 mol/L
same,Log GI50 (concentration in mol/L causing 50% growth inhibition),[31],−5.62 mol/L
same,Log GI50 (concentration in mol/L causing 50% growth inhibition),[32],−5.85 mol/L
same,Log GI50 (concentration in mol/L causing 50% growth inhibition),[33],−5.67 mol/L
same,Log GI50 (concentration in mol/L causing 50% growth inhibition),[34],−6.57 mol/L
same,Log GI50 (concentration in mol/L causing 50% growth inhibition),[35],−4.63 mol/L
same,Log GI50 (concentration in mol/L causing 50% growth inhibition),[36],−5.56 mol/L
same,Log10LC50 mean graph midpoint (MG_MID),[37]; 50% cell death,−4.58
same,Log10GI50 mean graph midpoint (MG_MID),[37],−5.78
same,Log10TGI mean graph midpoint (MG_MID),[37]; total cell growth inhibition,−5.86
"COc1cc(C=CC(=O)c2ccccc2O)ccc1OCCCOc1cc2c(cc1OC)C(=O)N1CCC[C@H]1C=N2 [6d, 7-Methoxy-8-{3-[1-(2-hydroxyphenyl)-3-(4-hydroxy-3-methoxyphenyl)-2-propen-1-one]propyl}-oxy-(11aS)-1,2,3,11a-5H-pyrrolo[2,1-c][1,4]benzodiazepin-5-one]",ΔTμ (° C.) after incubation at 37 °C. for 0 h,[1],2.1 °C
same,ΔTμ (° C.) after incubation at 37 °C. for 18 h,[1],2.6 °C
"COc1cc(C=CC(=O)c2ccc(F)cc2)ccc1OCCCOc1cc2c(cc1OC)C(=O)N1CCC[C@H]1C=N2 [6a, 7-Methoxy-8-{3-[1-(4-fluorophenyl)-3-(4-hydroxy-3-methoxyphenyl)-2-propen-1-one]propyl}-oxy-(11aS)-1,2,3,11a-5H-pyrrolo[2,1-c][1,4]benzodiazepin-5-one]",ΔTμ (° C.) after incubation at 37 °C. for 0 h,[1],1.7 °C
same,ΔTμ (° C.) after incubation at 37 °C. for 18 h,[1],2.4 °C
